{
  "source": "patent US11484608B2",
  "about": "“Non-invasive assessment of hepatic mitochondrial metabolism by positional isotopomer NMR tracer analysis (PINTA)” (YALE UNIVERSITY, priority 2017, dated 2022)",
  "key": {"[1]": {"system": "hepatic mitochondrial fluxes (VPC, VCS)", "experiment": "PINTA / ex vivo NMR tracer study in rats infused with [3-^13C]lactate and [3-^3H]glucose (Example 1)", "settings": "120 min [3-^13C]lactate infusion, mean ± S.E.M.", "from_the_text": "Male Sprague-Dawley rats (˜10 weeks of age) were ordered from Charles River (Wilmington, Mass.) at ˜300 g and fed regular chow unless otherwise specified. […] Prior to studies, rats underwent surgery under general isoflurane anesthesia to place polyethylene catheters in the jugular vein and common carotid artery (PE90 and PE50 tubing, respectively; Instech, Plymouth Meeting, Pa.). After 1 week, recovery was verified by confirming that the rats had regained their surgical weight. Unless otherwise specified, all experiments were performed following an overnight fast (16 hrs food withdrawal prior to sacrifice). In both the rodent and human studies, data are represented as the mean of two technical replicates for each subject (i.e. two technical replicates per biological replicate). Sample sizes were selected to give power to detect moderate to large differences between groups (n=5-6 per group), and all animals were included in the final analysis.\nThe investigator performing the animal studies was not blinded for practical reasons, but the investigators analyzing fluxes were blinded as to the group allocation.\nThe flux calculations required the following equations using [^13C] glucose positional enrichment in plasma or liver, determined by NMR and GC/MS mass spectrometry. VPC is the rate of pyruvate carboxylase flux as determined from the anaplerotic flow into oxaloacetate (OAA). VCS is defined as the flux of the citrate synthase reaction in the citric acid cycle. […] G2 denotes [m+2] glucose arising from the condensation of two singly-labeled trioses.\nGC/MS was used to measure m+1 and m+2 [^13C]glucose enrichment. The total m+1 and m+2 [^13C]glucose enrichment was measured using a pentaacetate derivative: plasma or liver samples were deproteinized using 5 volumes of methanol, dried, and derivatized with 75 μL of 1:1 acetic anhydride:pyridine. After heating to 65° C. for 20 min, the reaction was terminated by adding 25 μL methanol, and m+1 and m+2 (as well as m+3 . . . m+6) were determined by GC/MS (CI mode, m/z 331 [m], 332 [m+1], 333 [m+2], . . . 337 [m+6]). The m+1 and m+2 [^13C] enrichments of the glucose C4C5C6 fragment were determined by generating the aldonitrile pentapropionate derivative: plasma or NMR liver extract samples were dried under N2 gas, and 50 μl hydroxylamine hydrochloride (20 mg/ml in pyridine) were added. The samples were heated at 90° C. for 60 min, then 100 μl propionic anhydride was added, after which the samples were heated at 60° C. for 30 min. Finally, the samples were evaporated under N2 gas, resuspended in ethyl acetate, and the m+1 and m+2 enrichment of the glucose C4C5C6 fragment was measured by GC/MS.\n[^13C]alanine enrichment was measured by GC/MS. [^13C] NMR spectroscopy using the BRUKER TOPSPIN® system was utilized to measure relative positional 13C-enrichment of glucose, and combined with the total [^13C]glucose enrichment ([m+1]+2*[m+2]) measured by GC/MS to calculate the positional enrichment of [13C]glucose.\nTotal [^13C]glutamate enrichment was determined by LC-MS/MS. Approximately 100 mg of liver tissue was weighed out and homogenized in 500 μl ice-cold methanol using a TissueLyser, then centrifuged at 4000 rpm for 10 minutes. The supernatant was then purified by centrifugation (4000 rpm, 10 min) through the PALL NANOSEP® filter (100K) (Port Washington, N.Y.). Glutamate 13C enrichment ([m+1], [m+2]) was then assessed by LC-MS/MS using an AB SCIEX QTRAP 6500 (Framingham, Mass.), equipped with a SHIMADZU ultra-fast liquid chromatography (UFLC) system (Columbia, Md.) and electrospray ionization (ESI) source with negative-ion detection. The measured ion pairs were 146/128 (m0), 147/129 (m+1), and 148/130 (m+2).\nPositional enrichment of glucose, glutamate, and alanine was measured by 13C NMR."}, "[2]": {"system": "primary mouse hepatocytes", "experiment": "In vitro glucose production, VPC and lipolysis in isolated hepatocytes", "type": "cell-based", "settings": "isolated hepatocytes, 1 mM hydroxymalonate", "description": "For in vitro glucose production and lipolysis studies, primary mouse hepatocytes were isolated by the Yale Liver Center. Following removal of cell debris by Percoll density gradient centrifugation, cells were plated on 6-well collagen-I coated dishes (4.0×10^5 cells/well) in 2 ml recovery media (DMEM High Glucose containing 10% FBS, 2% penicillin-streptomycin, 100 nM dexamethasone, 1 nM insulin, and 10 mM HEPES). After incubation for 6 hr at 37° C. and 5% CO2, the attached cells were washed once in 1×PBS and then incubated overnight in 2 ml Low Glucose Culture Media (DMEM Low Glucose supplemented with 10% FBS, 2% penicillin-streptomycin and 10 mM HEPES for glucose production studies) or Serum Free Low Glucose Culture Media (DMEM Low Glucose supplemented with 0.5% fatty acid free BSA, 2% penicillin-streptomycin and 10 mM HEPES for lipolysis assays). […] After incubation for 8 hr at 37° C. and 5% CO2, cell culture media was collected for analysis of glucose, NEFA, and glycerol concentrations as described above. VPC was determined by measuring VPC/VEGP by PINTA as described above using 300 μL of the collected media, and multiplying this ratio by the measured glucose production rate. In a subset of studies, cells were incubated for 8 hr during the glucose production assay in media containing one of the following agents (all dissolved in 0.5% DMSO), or 0.5% DMSO vehicle: 20 μM ET-18-OCH3 (Santa Cruz), 100 μM U-73122 (Sigma), 30 nM thapsigargin (Sigma), 100 nM vasopressin (Sigma) 50 μM 2-APB (R&D Systems), 70 μM caffeine (Sigma), 1 mM malic enzyme inhibitor hydroxymalonate (Sigma). To inhibit PKA, hepatocytes were incubated in H-89 […] hydrate (Sigma, 25 μM) dissolved in media, or media lacking H-89 as a control. In the insulin treatment studies, hepatocytes were incubated in 1 nM insulin with 5% BSA and glucose production media for the duration of the glucose production assay. In the in vitro atglistatin study, hepatocytes were incubated in 10 μM atglistatin in 0.1% EtOH, or 0.1% EtOH vehicle. All values were normalized to total protein content determined from whole-cell lysates by a BCA protein assay (Thermo Fisher Scientific) according to the manufacturer's instructions and expressed as fold change verses vehicle-treated cells."}, "[3]": {"system": "HPA axis, WAT lipolysis, and hepatic gluconeogenesis", "type": "in vivo, rat", "description": "Blood samples were taken at 14, 16, and 18 hr of the fast for measurement of substrate/hormone concentrations and turnover of each tracer, as described below. […] Liver and muscle glycogen concentrations were assessed using amyloglucosidase digestion. Liver TAG content was measured using the method of Bligh and Dyer (Bligh and Dyer, Can. J. Biochem. Physiol. 37, 911-917, 1959): lipids were extracted from livers using 2:1 chloroform:methanol, and the Sekisui triglyceride-SL reagent was used to measure triglyceride content spectrophotometrically. Liver and muscle DAG content and liver acetyl- and malonyl-CoA concentrations were measured by LC-MS/MS as described by Yu and Perry (Yu, et al. J. Biol. Chem. 2002, 277, 50230-50236; Perry, et al., J. Clin. Invest. 2017, 127, 657-669). […] The samples were homogenized in […] ice-cold methanol using a TissueLyser and filtered through a Nanosep filter. LC-MS/MS (AbSCIEX 6500 QTRAP with a Shimadzu ultrafast liquid chromatography system, negative ion mode) was again used to monitor the relevant ion pairs: succinate and [^13C4]succinate, 117/99 and 121/103, respectively; malate and [^13C4]malate, 133/115 and 137/119, respectively; and citrate and [13C6]citrate, 191/173 and 197/179, respectively. […] Hepatic PKCε translocation, gluconeogenic enzyme protein expression, ApoB (antibody from Meridian Life Science, Memphis, Tenn.), and PGC1α (antibody from Santa Cruz Biotechnology, Dallas, Tex.) protein expression were assessed by western blot. Expression of each of these proteins was normalized to GAPDH."}, "[4]": {"system": "HPA axis, WAT lipolysis, endogenous glucose production", "experiment": "Leptin dose-response in streptozotocin-induced type 1 diabetic rats", "type": "in vivo, rat", "settings": "T1D rats", "from_the_text": "Male Sprague-Dawley rats were ordered from Charles River Laboratories (Wilmington, Mass.) at ˜250 g and were group housed (3 per cage) for 1-2 weeks until they underwent surgery under general isoflurane anesthesia for placement of polyethylene catheters in the common carotid artery (PE50 tubing, Instech Solomon, Plymouth Meeting, Pa.), and the jugular vein (PE90 tubing, Instech), and/or the portal vein (PE50 tubing, Instech), after which they were singly housed until sacrifice. Unless otherwise specified, rats were fed a regular chow diet (Harlan Teklad #2018, Indianapolis, Ind.) throughout, and fasted as described below. […] In order to induce T1D, rats were injected with streptozotocin (65 mg/kg IP, Sigma Aldrich, St. Louis, Mo.) 24 hr prior to the start of a leptin infusion study and were fasted overnight 12 hr after streptozotocin injection.\nIn order to examine the physiologic impact of varying doses of leptin on glucose, hormones, and lipolysis, rats were infused with stepwise increasing doses of leptin during a continuous infusion of [1,2,3,4,5,6,6-^2H7]glucose, [U-^13C16]palmitate, [1,1,2,3,3-^2H5] glycerol, and [U-^13C4] β-hydroxybutyrate starting at hour 42 of a 48 hr fast. From 42-43.5 hr of the fast rats were infused with tracer only, from hours 43.5-45 they were infused with 20 pmol/(kg-min) leptin, from hours 45-46.5 they were infused with 60 pmol/(kg-min) leptin, and from 46.5-48 hr the infusion rate was 600 pmol/(kg-min). Blood samples were taken at 43.5, 45, 46.5, and 48 hr for measurement of substrate/hormone concentrations and turnover of each tracer, as described below. In the T1D leptin dose response studies, overnight (12 hr) fasted rats were infused with stepwise increasing dose of leptin during the same tracer infusion as described above. From 12-14 hr of the fast rats were infused with tracer only, from 14-16 hr they were infused with 50 pmol/(kg-min) leptin, and from hours 16-18 they were infused with 600 pmol/(kg-min) leptin. Blood samples were taken at 14, 16, and 18 hr of the fast for measurement of substrate/hormone concentrations and turnover of each tracer, as described below."}, "[5]": {"settings": "supraphysiologic leptin treatment"}, "[6]": {"settings": "supraphysiologic leptin (˜1300 pM)"}},
  "note": "Read-outs that look alike come from different tables or passages of the source.",
  "data": [
    {"compound": "O=C(O)C(O)C(=O)O", "note": "[ME inhibitor, hydroxymalonate]", "values": [
      {"measurement": "VPDH/VCS (%)", "setting": "[1]; rat liver", "result": "2.0 ± 1.1", "unit": "%"},
      {"measurement": "VPK+ME/VPC+PDH (%)", "setting": "[1]; rat liver", "result": "7.9 ± 2.1", "unit": "%"},
      {"measurement": "VPC/VEGP (%)", "setting": "[1]; rats", "result": "50 ± 2", "unit": "%"},
      {"measurement": "basal or glucagon-stimulated glucose production or VPC", "setting": "[2]", "result": "no impact"}
    ]},
    {"compound": "leptin: leptin hormone infused at stepwise increasing doses", "values": [
      {"measurement": "plasma FGF-21 concentrations", "setting": "[3]; 48-hr fasted rats", "result": "dose-dependent reduction"},
      {"measurement": "plasma growth hormone concentrations", "setting": "[3]; 48-hr fasted rats", "result": "no difference"},
      {"measurement": "plasma corticosterone", "setting": "[3]; all three infusion rates", "result": "suppressed"},
      {"measurement": "plasma insulin concentrations", "setting": "[3]; highest dose", "result": "increased"},
      {"measurement": "increase in plasma epinephrine and norepinephrine concentrations", "setting": "[3]; highest infusion rate", "result": "2- to 3 fold"},
      {"measurement": "fatty acid and glycerol turnover", "setting": "[3]; physiologic leptin replacement", "result": "suppressed"},
      {"measurement": "plasma NEFA, glycerol, β-hydroxybutyrate, and lactate concentrations", "setting": "[3]; physiologic leptin replacement", "result": "suppression"},
      {"measurement": "hepatic glucose production", "setting": "[3]; plasma leptin ˜60 pM", "result": "lowered"},
      {"measurement": "plasma glucose concentrations", "setting": "[3]; plasma leptin ˜60 pM", "result": "lowered"},
      {"measurement": "plasma glucose concentrations and hepatic glucose production", "setting": "[3]; plasma leptin ˜150 pM and ˜1250 pM", "result": "unable to lower"},
      {"measurement": "plasma NEFA, glycerol, β-hydroxybutyrate, and lactate concentrations", "setting": "[3]; supraphysiologic leptin infusions", "result": "increases"},
      {"measurement": "fatty acid and glycerol turnover", "setting": "[3]; [5]", "result": "increased"},
      {"measurement": "hepatic acetyl-CoA content and β-hydroxybutyrate turnover", "setting": "[3]; [5]", "result": "increases"},
      {"measurement": "HPA axis activity", "setting": "[4]; both doses", "result": "suppressed"},
      {"measurement": "WAT lipolysis", "setting": "[4]; leptin ˜60 pM", "result": "suppression"},
      {"measurement": "suppression of WAT lipolysis", "setting": "[4]; leptin ˜1300 pM", "result": "abrogated"},
      {"measurement": "plasma glucose concentrations and endogenous glucose production rates", "setting": "[4]; physiologic leptin replacement (˜60 pM)", "result": "marked reduction"},
      {"measurement": "growth hormone concentrations", "setting": "[4]; supraphysiologic leptin", "result": "without any change"},
      {"measurement": "increase in plasma catecholamine concentrations", "setting": "[4]; [6]", "result": 4, "unit": "fold"},
      {"measurement": "plasma glucose concentrations and endogenous glucose production", "setting": "[4]; [6]", "result": "increases"}
    ]}
  ]
}
